These results are taken from ChEMBL document CHEMBL3407332, “An efficient synthesis of new caffeine-based chalcones, pyrazolines and pyrazolo[3,4-b][1,4]diazepines as potential antimalarial, antitrypanosomal and antileishmanial agents” (Eur J Med Chem, 2015).

The test system of one data set is Plasmodium falciparum. Briefly: Antimalarial activity against asynchronic culture of Plasmodium falciparum NF54 assessed as parasite growth inhibition at 20 ug/mL after 48 hrs by ethidium bromide staining-based spectrofluorometric analysis relative to control. The class given is functional. To be noted: NF54, 48 h, read-out: GI.
The subject of a further data set is Trypanosoma cruzi. Briefly: Antitrypanosomal activity against amastigote stage of Trypanosoma cruzi Tulahuen infected in human U937 cells assessed as parasite growth inhibition at 20 ug/mL after 72 hrs by beta-galactosidase reporter gene assay relative to control. The class given is functional. To be noted: U-937, 72 h, read-out: GI. In general terms: In a reporter assay the amount or activity of a reporter protein is the signal.

Data set [1] deals with Leishmania panamensis. Briefly: Antileishmanial activity against amastigote stage of Leishmania panamensis MHOM/CO/87/UA140-EpiR-GFP infected in human U937 cells assessed as parasite growth inhibition after 72 hrs by flow cytometric analysis. Particulars: MHOM/CO/87/UA140, U-937, 72 h. It counts as functional, organism-based. Background: In flow cytometry, cells or beads pass a laser one at a time.

Data set [2] concerns Leishmania panamensis. Briefly: Antileishmanial activity against amastigote stage of Leishmania panamensis MHOM/CO/87/UA140-EpiR-GFP infected in human U937 cells assessed as parasite growth inhibition at 20 ug/mL after 72 hrs by flow cytometric analysis relative to control. It counts as functional. To be noted: MHOM/CO/87/UA140, U-937, 72 h, read-out: GI.
The nature of data set [3]: Cytotoxicity against human U937 cells assessed as cell viability after 72 hrs by MTT assay. The class given is cell-based, U-937. Particulars: read-out: LC50.

Molecules are shown by their SMILES. In brackets after ≈: the same amount, converted by molar mass. Some results are limits rather than exact numbers.

In general, EC50 refers to the concentration that produces a half-maximal response. `COc1cc(/C=C/C(=O)c2ccc(Cl)cc2)ccc1Oc1nc2c(c(=O)n(C)c(=O)n2C)n1C`: the figures for the inhibition of growth at 20 µg/mL with Plasmodium falciparum, in the data set with Trypanosoma cruzi and with Leishmania panamensis [2] were 18.4%, 29.5% and 88.3%, respectively. Moreover, the EC50 in the data set on Leishmania panamensis [1] stood at 12.9 mg/L (≈ 26.8 µM). For the same compound, the CC50 at 72 h in data set [3] was 102 mg/L (≈ 212 µM).

For the compound `COc1cc(/C=C/C(=O)c2ccc(Br)cc2)ccc1Oc1nc2c(c(=O)n(C)c(=O)n2C)n1C`, the inhibition of growth at 20 µg/mL stood at 34.3% with Plasmodium falciparum, 0% with Trypanosoma cruzi and 50.8% with Leishmania panamensis [2]. In data set [3], the CC50 at 72 h stood at 96.5 mg/L (≈ 184 µM).

On to `C[C@@H]1[C@H](O)[C@@H](C)/C=C/C=C/C=C/C=C/C=C/C=C/C=C/[C@H](O[C@@H]2O[C@H](C)[C@@H](O)[C@H](N)[C@@H]2O)C[C@@H]2O[C@](O)(C[C@@H](O)C[C@@H](O)[C@H](O)CC[C@@H](O)C[C@@H](O)CC(=O)O[C@H]1C)C[C@H](O)[C@H]2C(=O)O` [AMPHOTERICIN B], for which, in the data set with Leishmania panamensis [1], the EC50 was found to be 0.05 mg/L (≈ 0.0541 µM). Moreover, in the data set with Leishmania panamensis [2], the inhibition of growth at 20 µg/mL came to 100%. In addition, in data set [3], the CC50 at 72 h was 36 mg/L (≈ 39 µM).

With `COc1cc(C2CC(c3ccc(Cl)cc3)=NN2C=O)ccc1Oc1nc2c(c(=O)n(C)c(=O)n2C)n1C` (centres undefined), the results for the inhibition of growth at 20 µg/mL in the data set with Plasmodium falciparum, in the data set with Trypanosoma cruzi and with Leishmania panamensis [2] were 23.9%, 21.1% and 0%, respectively. In addition, the CC50 at 72 h in data set [3] was above 200 mg/L.

For `CCN(CC)CCCC(C)Nc1ccnc2cc(Cl)ccc12` (centres undefined) [CHLOROQUINE], the inhibition of growth at 20 µg/mL in the data set on Plasmodium falciparum was 58.2%.

For `COc1ccc(C2=NNC(c3ccc(Oc4nc5c(c(=O)n(C)c(=O)n5C)n4C)c(OC)c3)C2)cc1` (centres undefined), the values for the inhibition of growth at 20 µg/mL with Plasmodium falciparum, with Trypanosoma cruzi and with Leishmania panamensis [2] were 13.1%, 25.9% and 0%, respectively. The CC50 at 72 h in data set [3] was above 200 mg/L.

Take `COc1cc(C2CC(c3ccc(C)cc3)=NN2C=O)ccc1Oc1nc2c(c(=O)n(C)c(=O)n2C)n1C` (centres undefined): the figures for the inhibition of growth at 20 µg/mL in the data set with Plasmodium falciparum, in the data set on Trypanosoma cruzi and with Leishmania panamensis [2] were 37.1%, 0% and 0%, respectively. Further, the CC50 at 72 h in data set [3] was above 200 mg/L.

For `COc1cc(C2CC(c3cc(OC)c(OC)c(OC)c3)=NN2C=O)ccc1Oc1nc2c(c(=O)n(C)c(=O)n2C)n1C` (centres undefined), the inhibition of growth at 20 µg/mL in the data set with Plasmodium falciparum is 29.5%; with Trypanosoma cruzi, 9.9%; in the data set with Leishmania panamensis [2], 30.1%. Further, the CC50 at 72 h in data set [3] was above 200 mg/L.

On to `COc1cc(C2CC(c3ccccc3)=NN2C=O)ccc1Oc1nc2c(c(=O)n(C)c(=O)n2C)n1C` (centres undefined), for which the inhibition of growth at 20 µg/mL was found to be 30.8% with Plasmodium falciparum, 0% with Trypanosoma cruzi and 53.1% in the data set with Leishmania panamensis [2]. The CC50 at 72 h in data set [3] is above 200 mg/L.

Turning to `COc1cc(C2CC(c3ccc(Cl)cc3)=NN2C(C)=O)ccc1Oc1nc2c(c(=O)n(C)c(=O)n2C)n1C` (centres undefined), the inhibition of growth at 20 µg/mL with Plasmodium falciparum stood at 22.1%; with Trypanosoma cruzi it was 9.8%; in the data set on Leishmania panamensis [2] it was 39.1%. The CC50 at 72 h in data set [3] is above 200 mg/L.

As to `COc1ccc(C2=NN(C=O)C(c3ccc(Oc4nc5c(c(=O)n(C)c(=O)n5C)n4C)c(OC)c3)C2)cc1` (centres undefined), the inhibition of growth at 20 µg/mL came to 41.7% in the data set with Plasmodium falciparum, 27% in the data set on Trypanosoma cruzi and 48.1% with Leishmania panamensis [2]. For the same compound, the CC50 at 72 h in data set [3] stood at 38.7 mg/L (≈ 74.6 µM).

With `COc1cc(/C=C/C(=O)c2ccccc2)ccc1Oc1nc2c(c(=O)n(C)c(=O)n2C)n1C`, the inhibition of growth at 20 µg/mL was found to be 27.5% with Plasmodium falciparum, 0% in the data set with Trypanosoma cruzi and 40.4% in the data set with Leishmania panamensis [2]. The CC50 at 72 h in data set [3] was found to be 131 mg/L (≈ 293 µM).

As to `COc1cc(C2CC(c3ccc(Cl)cc3)=NN2)ccc1Oc1nc2c(c(=O)n(C)c(=O)n2C)n1C` (centres undefined), the inhibition of growth at 20 µg/mL was 23.9% with Plasmodium falciparum, 36.4% in the data set with Trypanosoma cruzi and 7.7% with Leishmania panamensis [2]. For the same compound, the CC50 at 72 h in data set [3] is 34.6 mg/L (≈ 69.9 µM).
